Among the data in patent publication US9040528B2, “Chemical compounds 542” (AstraZeneca AB, priority 2008, dated 2015) are IC50 values, retold here.

In the first assay the target is Escherichia coli DNA gyrase A/B tetramer (Escherichia coli (strain K12), UniProt P0AES4+P0AES6). In words: DNA gyrase supercoiling activity fluorescence polarisation assay. Format: biochemical.
Conditions: not given
Put shortly: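 Supercoiling reactions quenched with 40 nM 5′-BODIPY-FL triplex-forming oligonucleotide probe in pH 3.5 NaCl/sodium acetate buffer; after 60 min, fluorescence anisotropy read (ex 485/em 535 nm). IC50 by nonlinear regression, normalised to 0.8% DMSO (100% activity) and 5 μM ciprofloxacin (0% activity).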
(Fluorescence polarisation rises when a labelled molecule tumbles more slowly, as on binding a larger partner.)
As a reminder, the IC50 is the point on the concentration scale where inhibition reaches its midpoint. `C[C@@H]1CN2c3c(cc4c(C(=O)N5CC(C#N)C5)noc4c3F)CC3(C(=O)NC(=O)NC3=O)[C@H]2[C@H](C)O1` (relative stereo) [Example 164, 1-((2R,4 S,4 aS)-rel-11-fluoro-2,4-dimethyl-2′,4′,6′-trioxo-2,2′,3′,4,4a,4′,6,6′-octahydro-1H,1′H-spiro[isoxazolo[4,5-g][1,4]oxazino[4,3-a]quinoline-5,5′-pyrimidine]-8-ylcarbonyl)azetidine-3-carbonitrile]: half-maximal inhibition (IC50) was put at 1200 nM.

The same assay, now with this note: 5 nM enzyme, relaxed plasmid, 0.3 mM ATP, ambient temperature; read-out: E. coli DNA gyrase supercoiling IC50.
As to `C[C@@H]1CN2c3c(cc4c(C(=O)NCC5CC5)noc4c3F)CC3(C(=O)NC(=O)NC3=O)[C@H]2[C@H](C)O1` (relative stereo) [Example 152, (2R,4S,4aS)-rel-N-(cyclopropylmethyl)-11-fluoro-2,4-dimethyl-2′,4′,6′-trioxo-2,2′,3′,4,4a,4′,6,6′-octahydro-1H,1′H-spiro[isoxazolo[4,5-g][1,4]oxazino[4,3-a]quinoline-5,5′-pyrimidine]-8-carboxamide], the IC50 amounted to 2100 nM.

In the case of `C[C@@H]1CN2c3c(cc4c(C(=O)N5CCCCO5)noc4c3F)CC3(C(=O)NC(=O)NC3=O)[C@H]2[C@H](C)O1` (relative stereo) [Example 153, (2R,4S,4aS)-rel-11-fluoro-2,4-dimethyl-8-(1,2-oxazinan-2-ylcarbonyl)-1,2,4,4a-tetrahydro-2′H,6H-spiro[isoxazolo[4,5-g][1,4]oxazino[4,3-a]quinoline-5,5′-pyrimidine]-2′,4′,6′(1′H,3′H)-trione], the IC50 was 3700 nM.

Consider `C[C@@H]1CN2c3c(cc4c(C(=O)NCc5cccs5)noc4c3F)CC3(C(=O)NC(=O)NC3=O)[C@H]2[C@H](C)O1` (relative stereo) [Example 154, (2R,4S,4aS)-rel-11-fluoro-2,4-dimethyl-2′,4′,6′-trioxo-N-(thiophen-2-ylmethyl)-2,2′,3′,4,4a,4′,6,6′-octahydro-1H,1′H-spiro[isoxazolo[4,5-g][1,4]oxazino[4,3-a]quinoline-5,5′-pyrimidine]-8-carboxamide], for which the IC50 was 1500 nM.

On to `C[C@@H]1CN2c3c(cc4c(C(=O)NCc5ccncc5)noc4c3F)CC3(C(=O)NC(=O)NC3=O)[C@H]2[C@H](C)O1` (relative stereo) [Example 155, (2R,4S,4aS)-rel-11-fluoro-2,4-dimethyl-2′,4′,6′-trioxo-N-(pyridin-4-ylmethyl)-2,2′,3′,4,4a,4′,6,6′-octahydro-1H,1′H-spiro[isoxazolo[4,5-g][1,4]oxazino[4,3-a]quinoline-5,5′-pyrimidine]-8-carboxamide], for which the IC50 worked out at 1200 nM.

Turning to `C[C@@H]1CN2c3c(cc4c(C(=O)NCC5CCCCC5)noc4c3F)CC3(C(=O)NC(=O)NC3=O)[C@H]2[C@H](C)O1` (relative stereo) [Example 156, (2R,4S,4aS)-rel-N-(cyclohexylmethyl)-11-fluoro-2,4-dimethyl-2′,4′,6′-trioxo-2,2′,3′,4,4a,4′,6,6′-octahydro-1H,1′H-spiro[isoxazolo[4,5-g][1,4]oxazino[4,3-a]quinoline-5,5′-pyrimidine]-8-carboxamide], the IC50 turned out to be 1500 nM.

`C[C@@H]1CN2c3c(cc4c(C(=O)N5CCC(F)(F)CC5)noc4c3F)CC3(C(=O)NC(=O)NC3=O)[C@H]2[C@H](C)O1` (relative stereo) [Example 157, (2R,4S,4aS)-rel-8-(4,4-difluoropiperidine-1-carbonyl)-11-fluoro-2,4-dimethyl-2,4,4a,6-tetrahydro-1H,1′H-spiro[isoxazolo[4,5-g][1,4]oxazino[4,3-a]quinoline-5,5′-pyrimidine]-2′,4′,6′(3′H)-trione]: the half-inhibitory concentration (IC50) is 6400 nM.

Regarding `C[C@@H]1CN2c3c(cc4c(C(=O)NC5CN(C)C5)noc4c3F)CC3(C(=O)NC(=O)NC3=O)[C@H]2[C@H](C)O1` (relative stereo) [Example 159, (2R,4S,4aS)-rel-11-fluoro-2,4-dimethyl-N-(1-methylazetidin-3-yl)-2′,4′,6′-trioxo-2,2′,3′,4,4a,4′,6,6′-octahydro-1H,1′H-spiro[isoxazolo[4,5-g][1,4]oxazino[4,3-a]quinoline-5,5′-pyrimidine]-8-carboxamide], the IC50 was determined as 1400 nM.

Take `CC(=O)NC1CN(C(=O)c2noc3c(F)c4c(cc23)CC2(C(=O)NC(=O)NC2=O)[C@H]2[C@H](C)O[C@H](C)CN42)C1` (relative stereo) [Example 160, N-(1-((2R,4S,4aS)-rel-11-fluoro-2,4-dimethyl-2′,4′,6′-trioxo-2,2′,3′,4,4a,4′,6,6′-octahydro-1H,1′H-spiro[isoxazolo[4,5-g][1,4]oxazino[4,3-a]quinoline-5,5′-pyrimidine]-8-ylcarbonyl)azetidin-3-yl)acetamide]: the IC50 is 1000 nM.

With `C[C@@H]1CN2c3c(cc4c(C(=O)NCc5ccn(C)n5)noc4c3F)CC3(C(=O)NC(=O)NC3=O)[C@H]2[C@H](C)O1` (relative stereo) [Example 161, (2R,4S,4aS)-rel-11-fluoro-2,4-dimethyl-N-((1-methyl-1H-pyrazol-3-yl)methyl)-2′,4′,6′-trioxo-2,2′,3′,4,4a,4′,6,6′-octahydro-1H,1′H-spiro[isoxazolo[4,5-g][1,4]oxazino[4,3-a]quinoline-5,5′-pyrimidine]-8-carboxamide], the IC50 turned out to be 1300 nM.

Consider `COCC(COC)(COC)NC(=O)c1noc2c(F)c3c(cc12)CC1(C(=O)NC(=O)NC1=O)[C@H]1[C@H](C)O[C@H](C)CN31` (relative stereo) [Example 163, (2R,4S,4aS)-rel-N-(1,3-dimethoxy-2-(methoxymethyl)propan-2-yl)-11-fluoro-2,4-dimethyl-2′,4′,6′-trioxo-2,2′,3′,4,4a,4′,6,6′-octahydro-1H,1′H-spiro[isoxazolo[4,5-g][1,4]oxazino[4,3-a]quinoline-5,5′-pyrimidine]-8-carboxamide], for which the half-maximal inhibitory concentration (IC50) is 17000 nM.

For `C[C@@H]1CN2c3c(cc4c(-c5cnccn5)noc4c3F)CC3(C(=O)NC(=O)NC3=O)[C@H]2[C@H](C)O1` (relative stereo) [Example 165, (2R,4S,4aS)-rel-11-fluoro-2,4-dimethyl-8-(pyrazin-2-yl)-1,2,4,4a-tetrahydro-2′H,6H-spiro[1,4-oxazino[4,3-a][1,2]oxazolo[4,5-g]quinoline-5,5′-pyrimidine]-2′,4′,6′(1′H,3′H)-trione], the IC50 turned out to be 400 nM.

For the compound `C[C@@H]1CN2c3c(cc4c(-c5cncc(N(C)C)n5)noc4c3F)CC3(C(=O)NC(=O)NC3=O)[C@H]2[C@H](C)O1` (relative stereo) [Example 177, (2R,4S,4aS)-rel-8-(6-(dimethylamino)pyrazin-2-yl)-11-fluoro-2,4-dimethyl-2,4,4a,6-tetrahydro-1H,1′H-spiro[isoxazolo[4,5-g][1,4]oxazino[4,3-a]quinoline-5,5′-pyrimidine]-2′,4′,6′(3′H)-trione], the IC50 was 5000 nM.

As for `C[C@@H]1CN2c3c(cc4c(N5CCNCC5)noc4c3F)CC3(C(=O)NC(=O)NC3=O)[C@H]2[C@H](C)O1` (relative stereo) [Example 179, (2R,4S,4aS)-rel-11-fluoro-2,4-dimethyl-8-(piperazin-1-yl)-1,2,4,4a-tetrahydro-2′H,6H-spiro[isoxazolo[4,5-g][1,4]oxazino[4,3-a]quinoline-5,5′-pyrimidine]-2′,4′,6′(1′H,3′H)-trione], the IC50 was 2000 nM.
